From US9809574B2, “Isoindoline or isoquinoline compounds, a process for their preparation and pharmaceutical compositions containing them” (LES LABORATOIRES SERVIER, priority 2013, dated 2017)
Like-named read-outs stand apart in the source and are kept apart here.

Legend:
[1] = target: Bcl-2 protein (histag-Bcl-2, UniProtKB P10415) (Homo sapiens (Human), UniProt P10415); experiment: Inhibition of Bcl-2 by the fluorescence polarisation technique; assay type: binding
Source text: For partial inhibitors, the percentage fluorescence polarisation inhibition for a given concentration of the test compound is indicated.

[2] = tested on: RS4; 11 leukaemia cell line; experiment: In vitro cytotoxicity, Microculture Tetrazolium Assay (MTT); assay type: cell-based; conditions: Homo sapiens, 11 cells exposed for 48 hours
Description: The cytotoxicity studies were carried out on the RS4; 11 leukaemia cell line and on H146 small Cell Lung Carcinoma cell line. The cells are distributed onto microplates and exposed to the test compounds for 48 hours. The cell viability is then quantified by a colorimetric assay, the Microculture Tetrazolium Assay (Cancer Res., 1987, 47, 939-942).

[3] = fluorescence polarisation test, incubation for 2 hours, read-out: IC50 (nM) Bcl-2 FP

Bcl-2 protein, sequence (P10415 whole entry): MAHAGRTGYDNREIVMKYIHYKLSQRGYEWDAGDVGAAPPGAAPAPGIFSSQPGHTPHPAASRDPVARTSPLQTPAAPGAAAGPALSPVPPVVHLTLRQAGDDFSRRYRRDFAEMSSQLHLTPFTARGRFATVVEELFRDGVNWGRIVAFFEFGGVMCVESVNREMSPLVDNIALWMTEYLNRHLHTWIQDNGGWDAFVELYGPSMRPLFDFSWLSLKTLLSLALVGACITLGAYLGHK

Cc1c(C(=O)N(C)c2ccccc2)cc(-c2cc3c(cc2C(=O)N2Cc4ccccc4C[C@H]2C)CN(C(=O)Oc2ccc(N(C)CCN(C)C)cc2)CC3)n1C [Example 488, 4-{[2-(Dimethylamino)ethyl](methyl)amino}phenyl 6-{1,5-dimethyl-4-[methyl(phenyl)carbamoyl]-1H-pyrrol-2-yl}-7-[(3R)-3-methyl-1,2,3,4-tetrahydroisoquinoline-2-carbonyl]-1,2,3,4-tetrahydroisoquinoline-2-carboxylate]
IC50 [1, 3]: 5.3 nM | IC50 [2]: 13 nM

Cc1c(C(=O)N(C)c2ccccc2)cc(-c2cc3c(cc2C(=O)N2Cc4ccccc4C[C@H]2C)CN(C(=O)Oc2ccc(NCCN(C)C)cc2)CC3)n1C [Example 489, 4-{[2-(Dimethylamino)ethyl]amino}phenyl 6-{1,5-dimethyl-4-[methyl(phenyl)carbamoyl]-1H-pyrrol-2-yl}-7-[(3R)-3-methyl-1,2,3,4-tetrahydroisoquinoline-2-carbonyl]-1,2,3,4-tetrahydroisoquinoline-2-carboxylate]
IC50 [1, 3]: 3.2 nM | IC50 [2]: 68 nM

Cc1c(C(=O)N(C)c2ccc(O)cc2)cc(-c2cc3c(cc2C(=O)N2Cc4ccccc4C[C@H]2CN2CCOCC2)CN(C(=O)Oc2cccc(C#N)c2)CC3)n1C [Example 560, 3-Cyanophenyl 6-{4-[(4-hydroxyphenyl)(methyl)carbamoyl]-1,5-dimethyl-1H-pyrrol-2-yl}-7-[(3S)-3-(morpholin-4-ylmethyl)-1,2,3,4-tetrahydroisoquinoline-2-carbonyl]-1,2,3,4-tetrahydroisoquinoline-2-carboxylate]
IC50 [1, 3]: 8.8 nM | IC50 [2]: 70 nM

C#Cc1ccc(OC(=O)N2CCc3cc(-c4cc(C(=O)N(C)c5ccc(O)cc5)c(C)n4C)c(C(=O)N4Cc5ccccc5C[C@H]4CN4CCOCC4)cc3C2)cc1 [Example 564, 4-Ethynylphenyl 6-{4-[(4-hydroxyphenyl)(methyl)carbamoyl]-1,5-dimethyl-1H-pyrrol-2-yl}-7-[(3S)-3-(morpholin-4-ylmethyl)-1,2,3,4-tetrahydroisoquinoline-2-carbonyl]-1,2,3,4-tetrahydroisoquinoline-2-carboxylate]
IC50 [1, 3]: 4.5 nM | IC50 [2]: 3.3 nM

Cc1c(C(=O)N(C)c2ccc(O)cc2)cc(-c2cc3c(cc2C(=O)N2Cc4ccccc4C[C@H]2CN2CCOCC2)CN(C(=O)Oc2ccc(Cl)c(Cl)c2)CC3)n1C [Example 573, 3,4-Dichlorophenyl 6-{4-[(4-hydroxyphenyl)(methyl)carbamoyl]-1,5-dimethyl-1H-pyrrol-2-yl}-7-[(3S)-3-(morpholin-4-ylmethyl)-1,2,3,4-tetrahydroisoquinoline-2-carbonyl]-1,2,3,4-tetrahydroisoquinoline-2-carboxylate]
IC50 [1, 3]: 18 nM | IC50 [2]: 43 nM

Cc1c(C(=O)N(C)c2ccc(O)cc2)cc(-c2cc3c(cc2C(=O)N2Cc4ccccc4C[C@H]2CN2CCOCC2)CN(C(=O)Oc2ccc4ccccc4c2)CC3)n1C [Example 574, Naphthalen-2-yl 6-{4-[(4-hydroxyphenyl)(methyl)carbamoyl]-1,5-dimethyl-1H-pyrrol-2-yl}-7-[(3S)-3-(morpholin-4-ylmethyl)-1,2,3,4-tetrahydroisoquinoline-2-carbonyl]-1,2,3,4-tetrahydroisoquinoline-2-carboxylate]
IC50 [1, 3]: 8.8 nM | IC50 [2]: 11 nM

Cc1c(C(=O)N(C)c2ccc(O)cc2)cc(-c2cc3c(cc2C(=O)N2Cc4ccccc4C[C@H]2CN2CCOCC2)CN(C(=O)Oc2ccc4cc[nH]c4c2)CC3)n1C [Example 575, 1H-Indol-6-yl 6-{4-[(4-hydroxyphenyl)(methyl)carbamoyl]-1,5-dimethyl-1H-pyrrol-2-yl}-7-[(3S)-3-(morpholin-4-ylmethyl)-1,2,3,4-tetrahydroisoquinoline-2-carbonyl]-1,2,3,4-tetrahydroisoquinoline-2-carboxylate]
IC50 [1, 3]: 6.3 nM | IC50 [2]: 12 nM

Cc1c(C(=O)N(C)c2ccc(O)cc2)cc(-c2cc3c(cc2C(=O)N2Cc4ccccc4C[C@H]2CN2CCOCC2)CN(C(=O)Oc2ccc4[nH]ccc4c2)CC3)n1C [Example 577, 1H-Indol-5-yl 6-{4-[(4-hydroxyphenyl)(methyl)carbamoyl]-1,5-dimethyl-1H-pyrrol-2-yl}-7-[(3S)-3-(morpholin-4-ylmethyl)-1,2,3,4-tetrahydroisoquinoline-2-carbonyl]-1,2,3,4-tetrahydroisoquinoline-2-carboxylate]
IC50 [1, 3]: 5.9 nM | IC50 [2]: 4.7 nM

Cc1c(C(=O)N(C)c2ccc(O)cc2)cc(-c2cc3c(cc2C(=O)N2Cc4ccccc4C[C@H]2CN2CCOCC2)CN(C(=O)Oc2cnc4[nH]ccc4c2)CC3)n1C [Example 579, 1H-Pyrrolo[2,3-b]pyridin-5-yl 6-{4-[(4-hydroxyphenyl)(methyl)carbamoyl]-1,5-dimethyl-1H-pyrrol-2-yl}-7-[(3S)-3-(morpholin-4-ylmethyl)-1,2,3,4-tetrahydroisoquinoline-2-carbonyl]-1,2,3,4-tetrahydroisoquinoline-2-carboxylate]
IC50 [1]: 4.4 nM | IC50 [2]: 17 nM

Cc1ccc(OC(=O)N2CCc3cc(-c4cc(C(=O)N(C)c5ccccc5)c(C)n4C)c(C(=O)N4Cc5ccccc5C[C@H]4CN4CCOCC4)cc3C2)cc1 [Example 591, 4-Methylphenyl 6-{1,5-dimethyl-4-[methyl(phenyl)carbamoyl]-1H-pyrrol-2-yl}-7-[(3S)-3-(morpholin-4-ylmethyl)-1,2,3,4-tetrahydroisoquinoline-2-carbonyl]-1,2,3,4-tetrahydroisoquinoline-2-carboxylate]
IC50 [1, 3]: 2.5 nM | IC50 [2]: 7 nM

Cc1c(C(=O)N(C)c2ccccc2)cc(-c2cc3c(cc2C(=O)N2Cc4ccccc4C[C@H]2CN2CCOCC2)CN(C(=O)Oc2ccc4cc[nH]c4c2)CC3)n1C [Example 629, 1H-Indol-6-yl 6-{1,5-dimethyl-4-[methyl(phenyl)carbamoyl]-1H-pyrrol-2-yl}-7-[(3S)-3-(morpholin-4-ylmethyl)-1,2,3,4-tetrahydroisoquinoline-2-carbonyl]-1,2,3,4-tetrahydroisoquinoline-2-carboxylate]
IC50 [1, 3]: 7.2 nM | IC50 [2]: 9 nM

Cc1c(C(=O)N(C)c2ccccc2)cc(-c2cc3c(cc2C(=O)N2Cc4ccccc4C[C@H]2CN2CCOCC2)CN(C(=O)Oc2ccc4[nH]ccc4c2)CC3)n1C [Example 631, 1H-Indol-5-yl 6-{1,5-dimethyl-4-[methyl(phenyl)carbamoyl]-1H-pyrrol-2-yl}-7-[(3S)-3-(morpholin-4-ylmethyl)-1,2,3,4-tetrahydroisoquinoline-2-carbonyl]-1,2,3,4-tetrahydroisoquinoline-2-carboxylate]
IC50 [1, 3]: 5.2 nM | IC50 [2]: 8.2 nM

Cc1c(C(=O)N(C)c2ccccc2)cc(-c2cc3c(cc2C(=O)N2Cc4ccccc4C[C@H]2CN2CCOCC2)CN(C(=O)Oc2cnc4[nH]ccc4c2)CC3)n1C [Example 633, 1H-Pyrrolo[2,3-b]pyridin-5-yl 6-{1,5-dimethyl-4-[methyl(phenyl)carbamoyl]-1H-pyrrol-2-yl}-7-[(3S)-3-(morpholin-4-ylmethyl)-1,2,3,4-tetrahydroisoquinoline-2-carbonyl]-1,2,3,4-tetrahydroisoquinoline-2-carboxylate]
IC50 [1, 3]: 6.1 nM | IC50 [2]: 22 nM
